# Measurements published in PubChem BioAssay (NCI).
#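 Exposure lasted 48 hours, with cells grown in 96-well plates and compounds tested at five concentrations. TGI: total growth inhibition.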
# Tests used:
# Assay in all cases: inhibition of tumour cell growth, NCI panel, 48 h
# HL-60(TB) leukemia = system: HL-60(TB) leukemia
# SF-295 CNS = system: SF-295 CNS
# SF-268 CNS = system: SF-268 CNS
# U251 CNS = system: U251 CNS
# NCI-H460 lung = system: NCI-H460 lung
# SR leukemia = system: SR leukemia
# NCI-H23 lung = system: NCI-H23 lung
# SNB-78 CNS = system: SNB-78 CNS
# EKVX NSCLC = system: EKVX NSCLC
# COLO 205 colon = system: COLO 205 colon
# MOLT-4 leukemia = system: MOLT-4 leukemia
# A549 NSCLC = system: A549 NSCLC
# M14 melanoma = system: M14 melanoma
# UACC-257 melanoma = system: UACC-257 melanoma
# LXFL 529 NSCLC = system: LXFL 529 NSCLC
# RPMI-8226 leukemia = system: RPMI-8226 leukemia
# HCT-15 colon = system: HCT-15 colon
# SN12C renal = system: SN12C renal
# OVCAR-5 ovarian = system: OVCAR-5 ovarian
# NCI-H226 lung = system: NCI-H226 lung
# OVCAR-4 ovarian = system: OVCAR-4 ovarian
# RXF 393 renal = system: RXF 393 renal
# MALME-3M melanoma = system: MALME-3M melanoma
# SF-539 CNS = system: SF-539 CNS
# HOP-92 NSCLC = system: HOP-92 NSCLC
# RXF-631 renal = system: RXF-631 renal
# DMS 273 small cell lung = system: DMS 273 small cell lung
# CCRF-CEM leukemia = system: CCRF-CEM leukemia
# SW-620 colon = system: SW-620 colon
# K-562 leukemia = system: K-562 leukemia
# IGROV1 ovarian = system: IGROV1 ovarian
# SNB-19 CNS = system: SNB-19 CNS
# SK-MEL-28 melanoma = system: SK-MEL-28 melanoma
# CAKI-1 renal = system: CAKI-1 renal
# SNB-75 CNS = system: SNB-75 CNS
# HCC-2998 colon = system: HCC-2998 colon
# DMS 114 small cell lung = system: DMS 114 small cell lung
# XF 498 CNS = system: XF 498 CNS
# TK-10 renal = system: TK-10 renal
# SK-MEL-2 melanoma = system: SK-MEL-2 melanoma
# HT29 colon = system: HT29 colon
# HCT-116 colon = system: HCT-116 colon
# ACHN renal = system: ACHN renal
# HOP-18 NSCLC = system: HOP-18 NSCLC
# KM12 colon = system: KM12 colon
# A498 renal = system: A498 renal
# OVCAR-8 ovarian = system: OVCAR-8 ovarian
# NCI/ADR-RES ovarian = system: NCI/ADR-RES ovarian
# MDA-MB-231 breast = system: MDA-MB-231 breast
# BT-549 breast = system: BT-549 breast
# SK-OV-3 ovarian = system: SK-OV-3 ovarian
# OVCAR-3 ovarian = system: OVCAR-3 ovarian
# UO-31 renal = system: UO-31 renal
# KM20L2 colon = system: KM20L2 colon
# MDA-MB-435 = system: MDA-MB-435
# T-47D breast = system: T-47D breast
# 786-0 renal = system: 786-0 renal
# HOP-62 NSCLC = system: HOP-62 NSCLC
# LOX IMVI melanoma = system: LOX IMVI melanoma
# M19-MEL melanoma = system: M19-MEL melanoma
# PC-3 prostate = system: PC-3 prostate
# MDA-N = system: MDA-N
# MCF7 breast = system: MCF7 breast
# NCI-H522 lung = system: NCI-H522 lung
# SK-MEL-5 melanoma = system: SK-MEL-5 melanoma
# UACC-62 melanoma = system: UACC-62 melanoma
# DLD-1 colon = system: DLD-1 colon
# DU-145 prostate = system: DU-145 prostate
# HS 578T breast = system: HS 578T breast
smiles,measurement,setting,value
O=C(Nc1ccc2[nH]c3c(-c4ccccc4)nccc3c2c1)c1ccccc1[N+](=O)[O-],TGI,HL-60(TB) leukemia,10.6 µM
same,TGI,SF-295 CNS,3.7 µM
same,TGI,SF-268 CNS,> 100 µM
same,TGI,U251 CNS,16.7 µM
same,TGI,NCI-H460 lung,> 100 µM
same,TGI,SR leukemia,6.97 µM
same,TGI,NCI-H23 lung,33.5 µM
same,TGI,SNB-78 CNS,> 100 µM
same,TGI,EKVX NSCLC,> 100 µM
same,TGI,COLO 205 colon,23.5 µM
same,TGI,MOLT-4 leukemia,15.3 µM
same,TGI,A549 NSCLC,> 100 µM
same,TGI,M14 melanoma,5.88 µM
same,TGI,UACC-257 melanoma,30.7 µM
same,TGI,LXFL 529 NSCLC,47.2 µM
same,TGI,RPMI-8226 leukemia,> 100 µM
same,TGI,HCT-15 colon,5.32 µM
same,TGI,SN12C renal,> 100 µM
same,TGI,OVCAR-5 ovarian,4.63 µM
same,TGI,NCI-H226 lung,6.2 µM
same,TGI,OVCAR-4 ovarian,> 100 µM
same,TGI,RXF 393 renal,3.69 µM
same,TGI,MALME-3M melanoma,3.64 µM
same,TGI,SF-539 CNS,3.46 µM
same,TGI,HOP-92 NSCLC,8.97 µM
same,TGI,RXF-631 renal,> 100 µM
same,TGI,DMS 273 small cell lung,3.76 µM
same,TGI,CCRF-CEM leukemia,> 100 µM
same,TGI,SW-620 colon,37.3 µM
same,TGI,K-562 leukemia,> 100 µM
same,TGI,IGROV1 ovarian,> 100 µM
same,TGI,SNB-19 CNS,> 100 µM
same,TGI,SK-MEL-28 melanoma,> 100 µM
same,TGI,CAKI-1 renal,> 100 µM
same,TGI,SNB-75 CNS,9.14 µM
same,TGI,HCC-2998 colon,11.4 µM
same,TGI,DMS 114 small cell lung,> 100 µM
same,TGI,XF 498 CNS,18.9 µM
same,TGI,TK-10 renal,27.6 µM
same,TGI,SK-MEL-2 melanoma,21.4 µM
same,TGI,HT29 colon,4.3 µM
same,TGI,HCT-116 colon,> 100 µM
same,TGI,ACHN renal,> 100 µM
same,TGI,HOP-18 NSCLC,> 100 µM
same,TGI,KM12 colon,> 100 µM
same,TGI,A498 renal,9.47 µM
same,TGI,OVCAR-8 ovarian,> 100 µM
O=[As]O,TGI,HL-60(TB) leukemia,18.5 µM
same,TGI,SF-295 CNS,> 100 µM
same,TGI,SF-268 CNS,> 74.4 µM
same,TGI,NCI/ADR-RES ovarian,> 100 µM
same,TGI,U251 CNS,> 52.8 µM
same,TGI,MDA-MB-231 breast,> 100 µM
same,TGI,NCI-H460 lung,> 100 µM
same,TGI,SR leukemia,> 71.5 µM
same,TGI,NCI-H23 lung,> 100 µM
same,TGI,SNB-78 CNS,> 100 µM
same,TGI,EKVX NSCLC,> 100 µM
same,TGI,COLO 205 colon,> 100 µM
same,TGI,MOLT-4 leukemia,> 100 µM
same,TGI,BT-549 breast,> 100 µM
same,TGI,A549 NSCLC,> 100 µM
same,TGI,M14 melanoma,> 96.1 µM
same,TGI,UACC-257 melanoma,> 93.3 µM
same,TGI,LXFL 529 NSCLC,> 100 µM
same,TGI,SK-OV-3 ovarian,> 100 µM
same,TGI,RPMI-8226 leukemia,> 100 µM
same,TGI,OVCAR-3 ovarian,> 74.1 µM
same,TGI,HCT-15 colon,> 100 µM
same,TGI,SN12C renal,> 95.1 µM
same,TGI,OVCAR-5 ovarian,> 100 µM
same,TGI,NCI-H226 lung,> 100 µM
same,TGI,UO-31 renal,> 100 µM
same,TGI,KM20L2 colon,> 100 µM
same,TGI,OVCAR-4 ovarian,> 100 µM
same,TGI,MDA-MB-435,> 100 µM
same,TGI,RXF 393 renal,> 93.5 µM
same,TGI,T-47D breast,> 100 µM
same,TGI,MALME-3M melanoma,> 59.9 µM
same,TGI,SF-539 CNS,> 54.3 µM
same,TGI,HOP-92 NSCLC,> 91.5 µM
same,TGI,RXF-631 renal,22.5 µM
same,TGI,DMS 273 small cell lung,> 100 µM
same,TGI,CCRF-CEM leukemia,> 66.8 µM
same,TGI,786-0 renal,> 100 µM
same,TGI,SW-620 colon,> 100 µM
same,TGI,K-562 leukemia,> 89.5 µM
same,TGI,IGROV1 ovarian,> 60.4 µM
same,TGI,SNB-19 CNS,> 100 µM
same,TGI,HOP-62 NSCLC,> 100 µM
same,TGI,LOX IMVI melanoma,96.9 µM
same,TGI,SK-MEL-28 melanoma,> 100 µM
same,TGI,CAKI-1 renal,> 100 µM
same,TGI,M19-MEL melanoma,63.6 µM
same,TGI,SNB-75 CNS,97.2 µM
same,TGI,PC-3 prostate,> 100 µM
same,TGI,HCC-2998 colon,> 100 µM
same,TGI,DMS 114 small cell lung,40.3 µM
same,TGI,MDA-N,> 100 µM
same,TGI,MCF7 breast,> 100 µM
same,TGI,XF 498 CNS,36.8 µM
same,TGI,TK-10 renal,> 100 µM
same,TGI,SK-MEL-2 melanoma,> 100 µM
same,TGI,NCI-H522 lung,> 60.5 µM
same,TGI,SK-MEL-5 melanoma,> 61.8 µM
same,TGI,UACC-62 melanoma,> 59.3 µM
same,TGI,HT29 colon,> 100 µM
same,TGI,DLD-1 colon,> 100 µM
same,TGI,HCT-116 colon,> 100 µM
same,TGI,DU-145 prostate,> 100 µM
same,TGI,HS 578T breast,> 100 µM
same,TGI,ACHN renal,> 100 µM
same,TGI,KM12 colon,> 100 µM
same,TGI,A498 renal,> 100 µM
same,TGI,OVCAR-8 ovarian,> 70.1 µM
Cc1cc(C)nc(Sc2c([N+](=O)[O-])ncn2C)n1,TGI,SF-295 CNS,> 100 µM
same,TGI,SF-268 CNS,> 100 µM
same,TGI,U251 CNS,> 100 µM
same,TGI,NCI-H460 lung,> 100 µM
same,TGI,SR leukemia,> 100 µM
same,TGI,NCI-H23 lung,> 100 µM
same,TGI,SNB-78 CNS,> 100 µM
same,TGI,EKVX NSCLC,> 100 µM
same,TGI,COLO 205 colon,> 100 µM
same,TGI,MOLT-4 leukemia,> 100 µM
same,TGI,A549 NSCLC,> 100 µM
same,TGI,M14 melanoma,> 100 µM
same,TGI,UACC-257 melanoma,> 100 µM
same,TGI,LXFL 529 NSCLC,> 100 µM
same,TGI,SK-OV-3 ovarian,> 100 µM
same,TGI,RPMI-8226 leukemia,> 100 µM
same,TGI,OVCAR-3 ovarian,> 100 µM
same,TGI,SN12C renal,> 100 µM
same,TGI,OVCAR-5 ovarian,> 100 µM
same,TGI,NCI-H226 lung,> 100 µM
same,TGI,UO-31 renal,> 100 µM
same,TGI,OVCAR-4 ovarian,> 100 µM
same,TGI,MALME-3M melanoma,> 100 µM
same,TGI,SF-539 CNS,> 100 µM
same,TGI,HOP-92 NSCLC,> 100 µM
same,TGI,RXF-631 renal,> 100 µM
same,TGI,DMS 273 small cell lung,> 100 µM
same,TGI,CCRF-CEM leukemia,> 100 µM
same,TGI,786-0 renal,> 100 µM
same,TGI,SW-620 colon,> 100 µM
same,TGI,K-562 leukemia,> 100 µM
same,TGI,IGROV1 ovarian,> 100 µM
same,TGI,SNB-19 CNS,> 100 µM
same,TGI,HOP-62 NSCLC,> 100 µM
same,TGI,LOX IMVI melanoma,> 100 µM
same,TGI,SK-MEL-28 melanoma,> 100 µM
same,TGI,CAKI-1 renal,> 100 µM
same,TGI,M19-MEL melanoma,> 100 µM
same,TGI,SNB-75 CNS,> 100 µM
same,TGI,HCC-2998 colon,> 100 µM
same,TGI,DMS 114 small cell lung,> 100 µM
same,TGI,XF 498 CNS,> 100 µM
same,TGI,TK-10 renal,> 100 µM
same,TGI,SK-MEL-2 melanoma,> 100 µM
same,TGI,NCI-H522 lung,> 100 µM
same,TGI,SK-MEL-5 melanoma,> 100 µM
same,TGI,UACC-62 melanoma,> 100 µM
same,TGI,HT29 colon,> 100 µM
same,TGI,DLD-1 colon,> 100 µM
same,TGI,HCT-116 colon,> 100 µM
same,TGI,ACHN renal,> 100 µM
same,TGI,HOP-18 NSCLC,85.4 µM
same,TGI,KM12 colon,> 100 µM
same,TGI,A498 renal,> 100 µM
same,TGI,OVCAR-8 ovarian,> 100 µM
